Data set [1] is described as follows: Dynamic PET imaging in CD1 mice. The note with it: i.v. It counts as in vivo. As for the experimental part: As expected by the optimal lipophilicity of [^18F]RM273 (see 2.3, [43]) the PET images and the time–activity curve obtained for the whole brain shown in Figure 6 indicate a fast permeation of the BBB with a mean standardized uptake value (SUV) of 1.3 ± 0.4 at 2.25 min p.i. (n = 4).
The biodistribution of [^18F]RM273 in mice was assessed by dynamic small animal PET (Nanoscan, Mediso, Budapest, Hungary) 60 min recordings, followed by T1 weighted (GRE, TR/TE = 15.0/2.4 ms, 252/252, FA = 25°) imaging for anatomical correlation and attenuation correction. The mice weighing 31.7 ± 3.8 g were anaesthetized with 2% isoflurane in 60% oxygen and placed on a thermostatically heated animal bed. [^18F]RM273 (7.2 ± 1.1 MBq) was injected i.v. into the lateral tail vein (bolus within 5 s) at the start of the PET-acquisition. List mode PET data were binned as a series of attenuation-corrected sinogram frames (12 × 10 s, 6 × 30 s, 5 × 60 s and 10 × 300 s) and were reconstructed by Ordered Subset Expectation Maximization (OSEM3D) with four iterations, six subsets, and a voxel size of 0.4 mm^3 (Nucline v2.01, Mediso, Hungary). The analysis of reconstructed datasets was performed with PMOD software (v4.103, PMOD Technologies LLC, Zurich, Switzerland). […]

A short description of data set [2]: Quantification of radiometabolites in mouse tissues at 30 min p.i. In kind it is in vivo, CD-1 mice. As for the experimental part: From quantitative analysis of the radio-chromatograms, which indicated the presence of solely [^18F]RM273 (>99%; n = 3; Supplemental Information Table S1 and Figure S2), we concluded that upon the presence of an intact BBB, the PET image derived from [^18F]RM273 in the brain was not affected by confounding radiometabolites.
About 30 MBq [^18F]RM273 dissolved in about 150 µL isotonic saline was administered intravenously as a bolus in the tail vein of in awake female CD-1 mice weighing about 33 g (n = 3). At 30 min p.i., the animals were anesthetized and blood was withdrawn by retrobulbar bleeding using glass capillaries. Immediately afterwards, the animals were euthanized by cervical dislocation, and released urine sampled. Blood plasma was obtained from the whole blood sample by centrifugation (2 min, 8000 rpm, room temperature). In addition, the brain, the liver, and the pancreas were isolated and homogenized in 1 mL demineralized water on ice (1000 rpm, 10 strokes; glass vessel, PTFE plunger; Potter S, B. Braun Biotech International, Goettingen, Germany). Bone marrow (n = 2) was isolated by flushing the femur with about 200 µL isotonic saline.
The samples were further processed for subsequent radio-chromatographic analyses. Two consecutive extractions were performed as duplicate for plasma and brain determinations. Plasma and brain samples were added to an ice-cold MeOH/H2O mixture (9:1, v/v). The samples were vortexed for 3 min, incubated on ice for 5 min, and centrifuged at 12,000 rpm for 5 min. Supernatants were collected, the precipitates were re-dissolved in 100 µL of extraction solvent, and the extraction procedure was repeated. The activities of supernatants and precipitates were measured in a γ-counter (1480 WIZARD, Fa. Perkin Elmer), and the extraction efficiencies were calculated as ratio of the radioactivity in the supernatant to the radioactivity in the original sample (supernatant + precipitate). The supernatants from both extractions were combined, concentrated at 70 °C under argon stream up to a remaining volume of 100 µL, and subsequently analyzed by analytical radio-HPLC with a gradient system as applied in Section 5.2.2.
3. Quantification of radiometabolites in mouse
Table 1. Radiometabolite analysis of [18F]RM273 in different tissues 30 min p.i.
Experiment 1 Experiment 2
Extraction Intact Extraction Intact Extraction Intact efficiency tracer efficiency tracer (%) efficiency tracer
Figure 2. Representative radio-HPLC chromatograms of the metabolism studies of [18F]RM273 in different tissues obtained at 30 min p.i.. (A) Brain, (B) Plasma, (C) Pancreas, (D)
Liver and (E) Bone marrow. Conditions:
Reprosil-Pur C18-AQ (250 x 4.6 mm; 5 μm); gradient (eluent A 10% MeCN/20 mM
NH4OAcaq.; eluent B 90 % MeCN/20 mM
(1 picture or pasted object on this page, not shown here)

Data set [3] in a line: Lipophilicity (logD7.4), shake-flask method. It counts as physicochemical. The note with it: n-octanol/PBS pH 7.4, shake-flask, n = 3. The procedure: The in vitro stability of [^18F]RM273 was investigated in saline, phosphate-buffered saline (PBS), and TRIS-HCl buffer (50 mM, pH 7.4) at 37 °C for 2 h, and the radioligand remained intact (90%, 94%, and 100%, respectively; saline for 1 h: 95%). The logD7.4 of [^18F]RM273 was experimentally determined by the shake-flask method as 1.78 ± 0.22 (n = 3), which is well within the range of 1–3.5 recommended for brain targeting compounds [43].
LogD7.4 of [^18F]RM273 was experimentally determined in n-octanol/PBS; 0.01 M, pH 7.4) at room temperature by the shake-flask method. The measurement was performed twice in triplicate.

The term logD denotes the decadic logarithm of the distribution of all forms, ionised or not, between an organic phase and buffer at a given pH. A low value points to lower lipophilicity. For `COc1cc2c(cc1OC)CN(CCCCn1ccc3ccc([18F])nc31)CC2` [[^18F]RM273], the “mean standardized uptake value (SUV), whole brain” value in data set [1] (2.25 min p.i., n = 4) came out at 1.3 ± 0.4. For the same compound, the “peak-to-endpoint ratio, brain” value in data set [1] (60 min PET) amounted to 6.4 ± 0.9. Further, the Intact tracer in data set [2] (Bone Marrow, Mouse 2) was determined as 97%; in data set [2] (Bone Marrow, Mouse 3), 97%; in data set [2] (Brain, Mouse 1), 100%; in data set [2] (Brain, Mouse 2) it was 100%; in data set [2] (Brain, Mouse 3), 100%; in data set [2] (Liver, Mouse 1), 34%. For the same compound, the Intact tracer in data set [2] (Liver, Mouse 2) was found to be 36%; in data set [2] (Liver, Mouse 3), 28%; in data set [2] (Pancreas, Mouse 1) it was 100%; in data set [2] (Pancreas, Mouse 2), 96%; in data set [2] (Pancreas, Mouse 3) it was 96%; in data set [2] (Plasma, Mouse 1), 23%. Also, the Intact tracer was 37% in data set [2] (Plasma, Mouse 2) and 28% in data set [2] (Plasma, Mouse 3). Further, the “intact radioligand in brain” value in data set [2] (mice, n = 3) is above 99%. Further, the logD in data set [3] turned out to be 1.78 ± 0.22.

These data come from paper PMC8196714, “Design, Radiosynthesis and Preliminary Biological Evaluation in Mice of a Brain-Penetrant ^18F-Labelled σ2 Receptor Ligand” (International Journal of Molecular Sciences, 2021).
